# Laboratory results published in publication PMC10050424, “Structural basis of the substrate recognition and inhibition mechanism of Plasmodium falciparum nucleoside transporter PfENT1” (Nature Communications, 2023).
# Columns and labels:
# PfENT1 R291A = molecular target: T1, PfENT1 R291A (Plasmodium falciparum, UniProt Q8IDM6, R291A); assay: Inosine uptake assay, yeast expressing PfENT1 R291A; assay type: cell-based; conditions: Fig. 3d, construct R291A
# T1 construct: expressed in transfected cells; host or cells: S. cerevisiae BY4741, FUI1 deleted, PfENT1 mutant knock-in under the TEF1 promoter
# Text: (§1) Codon-optimized PfENT1 (for expression in yeast) was synthesized by Sangon Biotech. The carboxyl terminus of PfENT1 was HA-tagged through PCR. The TEF1p promoter and PGK1t terminator were amplified from BY4741 genomic DNA. Overlap PCR was applied to generate the gene overexpression cassette of PfENT1 (TEF1p promoter-PfENT1-PGK1t terminator). The two 600-bp homologous arms corresponding to the upstream and downstream regions of the FUI1 gene were amplified from BY4741 genomic DNA. The gene cassette of the ‘TEF1p promoter-PfENT1-PGK1t terminator’ together with the two homologous arms was cloned into the PUC19 plasmid through Gibson assembly, generating the final plasmid PUC19: PfENT1. PfENT1 mutations were generated using point mutation and verified by Sanger sequencing. The spacer targeting the FUI1 gene (5ʹ-[…]-3ʹ) was cloned into the pCas-BsaI plasmid to generate the pCas-FUI1 plasmid as described previously. […]
# (§2) Cells were grown overnight in YPD medium to mid-log phase and harvested by centrifugation at 3000 × g for 5 min. […] After washing by vacuum filtration with 2 ml ice-cold 2% glucose, the radioactivity retained on the filter was incubated with 1 mL of ULTIMA GOLD scintillation fluid (Perkin Elmer, 77-15311). Counts were measured using a liquid scintillation analyzer (Perkin Elmer, Tri-Carb 5110TR). […]
# PfENT1 D287A = molecular target: T2, PfENT1 D287A (Plasmodium falciparum, UniProt Q8IDM6, D287A); assay: Inosine uptake assay, yeast expressing PfENT1 D287A; assay type: cell-based; conditions: Fig. 3d, construct D287A
# T2 construct: expressed in transfected cells; host or cells: S. cerevisiae BY4741, FUI1 deleted, PfENT1 mutant knock-in under the TEF1 promoter
# Text: as §1, §2
# PfENT1 mutant D287A = molecular target: T3, PfENT1 mutant D287A (Plasmodium falciparum, UniProt Q8IDM6, D287A); assay: ITC binding to PfENT1 mutant D287A; conditions: Fig. 3c
# T3 construct: 10xHis (N); made in house; host or cells: Sf9 insect cells (baculovirus)
# T3 sequence (Q8IDM6 1-422 D287A): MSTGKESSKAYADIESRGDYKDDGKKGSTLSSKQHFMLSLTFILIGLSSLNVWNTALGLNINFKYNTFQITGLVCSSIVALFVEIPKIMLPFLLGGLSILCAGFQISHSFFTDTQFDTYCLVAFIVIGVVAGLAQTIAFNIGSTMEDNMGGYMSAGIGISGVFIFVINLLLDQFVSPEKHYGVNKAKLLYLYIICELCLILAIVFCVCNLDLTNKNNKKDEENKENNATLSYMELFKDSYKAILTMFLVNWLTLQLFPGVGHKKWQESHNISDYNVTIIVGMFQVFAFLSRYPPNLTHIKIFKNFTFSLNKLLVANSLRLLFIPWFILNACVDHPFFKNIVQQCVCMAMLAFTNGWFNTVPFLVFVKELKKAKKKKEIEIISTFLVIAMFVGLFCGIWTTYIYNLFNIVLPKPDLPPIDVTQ
# Description: For the in vitro binding assay, Sf9 cells were solubilized in lysis buffer containing 2% (w/v) n-dodecyl-β-D-maltopyranoside (DDM, Anatrace) and protease inhibitor cocktail (0.8 μM aprotinin, 2 μM pepstatin, and 5 μg/ml leupeptin) at 4 °C for 2 h. The soluble supernatant was collected via centrifugation and incubated with Ni-NTA resin (QIAGEN) at 4 °C for 1 h. The resin was washed and eluted using lysis buffer containing 0.05% (w/v) DDM and 30 mM/300 mM imidazole. The protein was further purified by size-exclusion chromatography (Superdex 200 Increase 10/300; GE Healthcare) in buffer containing 25 mM MES (pH 6.0), 150 mM NaCl, and 0.05% (w/v) DDM. The peak fractions were pooled and concentrated to 10~50 μM for the nucleoside-binding assay.
# The binding affinity between wild-type and mutant PfENT1 with nucleosides and GSK4 was measured using a Micro-Cal ITC200 (Malvern). All proteins were prepared in 25 mM MES (pH 6.0), 150 mM NaCl, and 0.05% (w/v) DDM. Nucleosides (5~10 mM) and GSK4 (100-200 μM) dissolved in the same buffer were titrated against 20–50 μM PfENT1 proteins at 25 °C. PEAQ-ITC analysis software (MicroCal) was employed to analyze the data. All titrations were repeated three times.
# T1 sequence (Q8IDM6 whole entry R291A): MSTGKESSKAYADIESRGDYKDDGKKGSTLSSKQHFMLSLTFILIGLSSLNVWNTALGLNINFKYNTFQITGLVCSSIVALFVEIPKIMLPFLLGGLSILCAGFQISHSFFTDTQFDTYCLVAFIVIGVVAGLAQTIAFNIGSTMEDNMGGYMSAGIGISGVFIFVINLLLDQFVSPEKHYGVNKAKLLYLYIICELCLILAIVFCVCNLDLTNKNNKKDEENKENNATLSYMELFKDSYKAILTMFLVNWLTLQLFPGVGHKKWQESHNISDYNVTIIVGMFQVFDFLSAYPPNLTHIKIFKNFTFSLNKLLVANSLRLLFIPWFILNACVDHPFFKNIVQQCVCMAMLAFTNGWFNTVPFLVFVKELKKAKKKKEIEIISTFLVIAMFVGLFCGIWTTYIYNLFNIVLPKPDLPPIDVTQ
smiles,measurement,setting,value
"OC[C@H]1O[C@@H](n2cnc3c(O)ncnc32)[C@H](O)[C@@H]1O [Inosine, inosine]",Uptake of [3H]-inosine (Percentage of PfENT1 WT),PfENT1 R291A,lost the transport activity
same,Uptake of [3H]-inosine (Percentage of PfENT1 WT),PfENT1 D287A,abolished the transport activity
same,binding affinity (Kd),PfENT1 mutant D287A,completely lost inosine binding
